Ends that are not written are not given here.
Experiments:
Assay type in all cases: physicochemical
[1] = UV-CD kinetics after dissolution in D2O, read at 198 nm and 215 nm
Protocol: (§1) The Raman spectra were obtained with the 442 nm (40 mW) excitation from a HeCd laser (Model IK 4601R-E, Kommon Electrics, USA) and recorded with a RM 100 Remishaw confocal microscope. The UV ECD spectra in the wavelength range of 180-250 nm of peptides were measured with a JASCO J-810 spectrapolarimeter in a 0.1 mm quartz cell with 0.05 nm resolution. Samples were placed in a nitrogen purged JASCO CD module. The temperature at the cuvette was controlled by means of a Peltier-type heating system (accuracy ±1° C.) set to 20° C. The spectra were obtained by averaging ten scans and were collected as ellipticity as a function of wavelength, and converted to units of molar absorptivities via the equation: […]
The UV-CD spectra of Ac-(AAKA)4-NH2 was acquired at various times after dissolution in deuterated water (D2O). The results are illustrated in FIG. 4. Initially a significant percentage of β-structure was observed, and in a time-dependent manner more flexible PPII-like conformations were observed.
The UV-CD kinetics of Ac-(AAKA)4-NH2, in terms of the readings at 198 nm and 215 nm as a function of time, were monitored. The results are illustrated in FIG. 5. The plots were fit to bi-exponential functions, reflecting a fast phase (˜18 minutes) and a slow phase (>300 minutes). The fast phase may reflect the kinetics of hydration/dissolution of the peptide. […]

[2] = Temperature-dependent UV-CD spectra; conditions: 3.5 mM in D2O, pH 2.7; intersection of two fitted straight lines
Protocol: as §1
The temperature-dependent UV-CD spectra of 3.5 mM Ac-(AAKA)4-NH2 measured at acid pH is illustrated in FIG. 8. […] The inset of FIG. 8 illustrates the change of the Δε measured at 214.5 nm as a function of temperature, reflecting the decrease of the β-sheet content with increasing temperature.
Two different modes were found in the relationship between the n-sheet content and temperature. The β-sheet content, as evaluated by Δε, […] linearly with temperatures below 300 K and remained almost constant after 350 K. The transition temperature between these two modes was around 320 K, as is defined by the intersection between the two straight lines, fitting the initial and final behaviors.

[3] = Hydrogel formation
Protocol: For the FT-IR (Fourier transform infrared), CD (circular dichroism), and Raman measurements of Ac-(AAKA)4-NH2, unless otherwise described, the peptide was dissolved in acidic D2O (pD=1.4) at a concentration of ˜15 mg/mL (˜10.5 mM), where the D2O was made acidic by the addition of DCl (Sigma-Aldrich). […] The measurements for the gelated state of the 12-mer, Ac-(AAKA)3-NH2, were carried out similarly, at a concentration of ˜27 mg/mL in D2O (pD=1.4). For the ECD measurements, Ac-(AAKA)3-NH2 and (AAKA)4 were dissolved in acidic D2O at concentrations of 2.4 mg/mL and 1 mg/mL, respectively, and the samples were measured at room temperature.
NaCl was added to a freshly aqueous solution of (AAKA)4, wherein the concentration of peptide was equal to or higher than 0.5 wt %. […] An example of such hydrogel is illustrated in FIG. 15.

[4] = Rheology (viscosity) of peptide solutions with NaCl
Protocol: Rheology measurements were made for solutions of (AAKA)4 (concentration of 5 mg/mL or 3.5 mM) in 0.5 M and 1.0 M NaCl, as shown in FIG. 16. […] The shear-thinning behavior observed in these experiments was consistent with other oligopeptides hydrogels (Schneider, […], J. Am. Chem. Soc. 124:15030).
Another rheology experiment is illustrated in FIG. 17, for a solution of (AAKA)4 (concentration of 5 mg/mL) in 0.0 M, 1.0 M and 2.0 M NaCl. FIG. 17 illustrates three experimental curves for each concentration of NaCl.
Yet another rheology experiment is illustrated in FIG. 18, for a 5 mg/mL and a 10 mg/mL solution of (AAKA)4 in 1 M NaCl. FIG. 18 illustrates three experimental curves for each value of concentration of peptide.
As illustrated above, (AAKA)4 was conformationally unstable upon dissolution in water, prior to the addition of salt and consequent hydrogel formation. […] This is illustrated in FIG. 19, where the viscosity of a 5 mg/mL (AAKA)4 solution comprising 2 M NaCl was compared with the viscosity of a similar peptide solution wherein NaCl was added after ˜24 hours.

| transition temperature of β-sheet content (Δε at 214.5 nm) [2] | hydrogel formation on addition of NaCl ([3]; 1-year-old sample, 5 mg/mL (3.5 mM)) | hydrogel formation on addition of NaCl ([3]; fresh aqueous solution, peptide equal to or higher than 0.5 wt %, final NaCl higher than 1.0 M) | viscosity as a function of peptide and NaCl concentration ([4]; 5 mg/mL (3.5 mM) in 0.5 M and 1.0 M NaCl) | viscosity of hydrogel when salt is added with delay ([4]; 5 mg/mL, 2 M NaCl added after ~24 hours, versus NaCl added at time zero) | Substance | fast phase of UV-CD kinetics (bi-exponential fit) [1] [min] | slow phase of UV-CD kinetics (bi-exponential fit) [1] [min] | hydrogel formation after dissolution ([3]; ~15 mg/mL (~10.5 mM) in acidic D2O, pD 1.4) |
| --- | --- | --- | --- | --- | --- | --- | --- | --- |
| around 320 K |  |  |  |  | Ac-AAKAAAKAAAKAAAKA-NH2 [Ac-(AAKA)4-NH2] | ~18 | > 300 | formed a hydrogel shortly after dissolution |
|  | did not result in hydrogel formation | rigid self-supporting hydrogel | more viscous gels | much less viscous and rigid hydrogel | AAKAAAKAAAKAAAKA [(AAKA)4] |  |  |  |

— patent US20100221341A1, “Alanine-Based Peptide Hydrogels” (Drexel University, priority 2009, published 2010)
